# Assay results reported in US10493061B2, “Compositions and methods comprising 2-(acylamino)imidazoles” (priority 2014, dated 2019).
# Entries after “also recorded” stand apart in the source; their conditions may differ.
# What was measured:
# [1] = Zn^2+ binding, (ZNA)2Zn dimer formation (MeOH precipitation, X-ray, NMR)
# From the text: The structure of the solid product was confirmed by X-ray crystallography (FIG. 14B). […] HCl in D2O protonates the ligand off the metal center, as evidenced by the disappearance of the diastereotopic benzyllic AB quartet in the dimer and its appearance as a singlet in the monomer. […] Of the analogues evaluated, those with more electron-donating groups at C5 or on the N^2-carbonyl seem to improve activity.
# [2] = test system: metal trafficking genes in MCF-7, T47D, MDA-MB-231 and MCF-10A cells; assay: Real-time PCR of metal trafficking genes; format: cell-based, human; details: 30 μM ZNA, 3 or 24 hours, four cell lines
# Method: Real-Time PCR (RT-PCR): For experiments designed to measure gene expression, real-time PCR (RT-PCR) was conducted using a LightCycler 480 (Roche, Basel, Switzerland) and KAPA SYBR FAST qPCR Master Mix (Kapa Biosystems, Boston, Mass., USA). […] Genomic DNA was removed with a DNase digest and 1 μg of RNA was used to synthesize cDNA using a Superscript III Reverse Transcriptase kit from Invitrogen per the manufacturer's protocol; after an RNase H digestion, RT-PCR was performed in a 5 μL reaction using KAPA SYBR FAST qPCR Master Mix (Kapa Biosystems, Boston, Mass., USA). The following primer sets were used: MT1F 5′-[…] -3′ (SEQ ID NO:1) and 5′-[…] -3′ (SEQ ID NO:2); MT1X 5′-[…] -3′ (SEQ ID NO:3) and 5′-[…] -3′ (SEQ ID NO:4); MT2A 5′-[…] -3′ (SEQ ID NO:5) and 5′-[…] -3′ (SEQ ID NO:6); SLC30A2 5′-[…] -3′ (SEQ ID NO:7) and 5′-[…] -3′ (SEQ ID NO:8); SLC30A1 5′-[…] -3′ (SEQ ID NO:9) and 5′-[…] -3′ (SEQ ID NO:10). Data were normalized to an internal reference gene (GAPDH 5′-[…] -3′ (SEQ ID NO:11) and 5′-[…] -3′ (SEQ ID NO:12)) and relative gene expression was assessed using the comparative CT method set forth in Schmittgen T D, Livak K J. Analyzing real-time PCR data by the comparative CT method. Nat Protocols 2008; 3(6):1101-08. For tissue derived from mouse in vivo experiments, fresh tissue was homogenized using a TissueLyser II for 3 minutes at 30 Hz before isolating RNA. […]
# [3] = test system: transplanted PyMT mammary tumors; assay: Mouse mammary tumor model (transplanted PyMT tumors), Kaplan-Meier survival; format: in vivo
# Method: In vivo ZNA studies: Mouse studies were conducted with the approval of an institutional animal care and use committee. FVB/NJ mice were obtained from The Jackson Laboratory (Bar Harbor, Me., USA). In preparation for the in vivo study, EF1α-PyMT mouse mammary tumors were generated in donor mice and the tumors resected and prepared as single cells as described previously by Smith et al. (6). These cells were suspended in Matrigel (BD Biosciences) and injected (50,000 cells per 10 μL injection) into the uncleared mammary fat pad of 3-week old female recipient FVB/NJ mice. Twenty-one days following the transplant, the mice were randomized, and drug treatment was initiated; the mice were treated once a day for 21 days, and a tumor diameter ≥2 cm was established as an endpoint. ZNA (100 mg/kg) or the matched vehicle control was administered to each mouse via a 200-μL intraperitoneal injection of ZNA diluted into DMSO, then diluted into phosphate buffered saline to a final DMSO concentration of 5%. ZnSO4 was administered continuously for the 21-day treatment period to the appropriate groups via drinking water (25 mM ZnSO4.7H2O).
# Statistics: The student's t-test (unpaired) was used to assess statistical significance and a p≤0.05 was considered statistically significant. Statistical significance between Kaplan-Meier survival curves was measured by the Mantel-Cox test using Prism 6.0 (GraphPad Software). The following P-values were used to annotate statistical significance: p≤0.05=*; p≤0.01=**; p≤0.001=***.
# Next, the efficacy of the compound was tested in an in vivo tumor model. […] Mice were treated once a day for 21 days, and four treatment conditions were assessed: ZNA (100 mg/kg administered via intraperitoneal), ZnSO4 (25 mM administered continuously for the duration of treatment via drinking water), a combination of ZNA and ZnSO4, and a control group (PBS administered via intraperitoneal injection); a tumor diameter greater than 2 cm was established as an endpoint.
# [4] = test system: LC3 in MCF-10A cells; assay: Western blot of autophagosome-associated protein LC3A/B; format: cell-based, human
# Method: Western blot analysis: For analysis of protein expression by Western blot analysis, the procedure set forth in Gligorich et al. was used. Gligorich K, Vaden R, Shelton D, Wang G, Matsen C, Looper R, et al. Development of a screen to identify selective small molecules active against patient-derived metastatic and chemoresistant breast cancer cells. Breast Cancer Res 2013; 15(4):R58. The cells were cultured and treated in 10-cm plates. Cells were harvested in cold radioimmunoprecipitation assay (RIPA) buffer (50 mM Tris-HCl, 150 mM NaCl, 0.1% sodium dodecyl sulfate (SDS), 0.5% sodium deoxycholate, and 1% Triton X-100) supplemented with protease and phosphatase inhibitors (Sigma). Protein concentration was measured using a BCA assay (Thermo Scientific) and […] of protein was resolved by gel electrophoresis using an SDS polyacrylamide gel. Protein was transferred to an Immobilon-FL PVDF membrane (Millipore, Billerica, Mass., USA) and the membrane was blocked for 1 hour at room temperature with Odyssey blocking buffer (Li—COR). […]
# Further cell death characterization studies were also conducted to establish the role of autophagy in ZNA-mediated cell death. To assess the level of autophagic induction following treatment with ZNA, levels of the autophagosome-associated protein LC3A/B were measured by western blot analysis. […]
compound,measurement,setting,value
"COc1ccc(-c2c(Cc3ccccc3)[nH]/c(=N\C(=O)c3ccccc3F)n2C)cc1 [ZNA, (E)-N-(4-benzyl-5-(4-methoxyphenyl)-1-methyl-1H-imidazol-2(3H)-ylidene)-2-fluorobenzamide]",Zn^2+ binding,[1],binds Zn^2+ in a pH dependent fashion
same,transcription of metal trafficking genes,[2],stimulated transcriptional increases
same,survival,"[3]; ZNA 100 mg/kg ip once a day for 21 days, vs control-treated group",statistically significant survival advantage
same,survival,"[3]; ZNA 100 mg/kg ip once a day with 25 mM ZnSO4 in drinking water, 21 days, vs ZnSO4-only group",statistically significant survival advantage
same,"general toxicity, adverse reactions, body weight","[3]; mice, ZNA 100 mg/kg alone or with ZnSO4","no general toxicity, adverse reactions, or decreases in body weight were observed; also recorded: without detrimental effects on mouse weight and health"
same,LC3 protein,"[4]; 30 μM ZNA with 30 μM ZnSO4, 6 hours",significant increases were not observed
same,LC3 level,"[4]; ZNA alone, 48 and 72 hours",only in the cancer cell lines
